# Test results: patent US20110282078A1, “CYCLOHEXENE 1,4 -CARBOXYLATES” (Draths Corporation, priority 2009, published 2011)
# Assay: approximate solubility at room temperature in ethyl acetate
# Format: physicochemical
# Conditions: organic solvent or mixture
# Procedure: A stirred suspension of dried (less than 5 weight percent of water), crude cis,cis or cis,trans muconic acid (200 g) in tetrahydrofuran (THF) (1.8 liter (l)) is heated to 50° C., Within 45 minutes at 50° C. most of the solid dissolves. Activated charcoal (35 g) is added. After 1 hour, the hot suspension is clarified by filtration through a bed of Celite™ diatomaceous earth. The filtrate is evaporated to dryness and the residue is dried under high vacuum to yield pure cis,cis or cis,trans muconic acid (166 g, 83 percent mass recovery). In the case of cis,cis muconic acid, any traces of cis,trans muconic acid can be removed by resuspending the solid twice in refluxing ethyl acetate, which is removed each time by decantation from the cooled solution. The approximate solubilities at room temperature in ethyl acetate are 1 mg/ml for cis,cis muconic acid, 5 mg/ml for cis,trans muconic acid, and 0.1 mg/ml for trans,trans muconic acid.
row,solubility,SMILES
1,~1000 µg/mL,"O=C(O)/C=C\C=C/C(=O)O [cis,cis muconic acid]"
2,~5000 µg/mL,"O=C(O)/C=C\C=C\C(=O)O [cis,trans muconic acid]"
3,~100 µg/mL,"O=C(O)/C=C/C=C/C(=O)O [trans,trans muconic acid]"
